# Literature values, collected in patent publication US20230364009A1, “Implantable Medical Device for the Delivery of an Antipsychotic” (Celanese EVA Performance Polymers LLC, priority 2022, published 2023).
# Experiments:
# [1] = molecular target: dopamine Type 2 (D2) receptors (Homo sapiens, UniProt P14416)
# [2] = molecular target: T1, serotonin 5HT1c receptors (Homo sapiens, UniProt P28335)
# T1 sequence (P28335 33-458): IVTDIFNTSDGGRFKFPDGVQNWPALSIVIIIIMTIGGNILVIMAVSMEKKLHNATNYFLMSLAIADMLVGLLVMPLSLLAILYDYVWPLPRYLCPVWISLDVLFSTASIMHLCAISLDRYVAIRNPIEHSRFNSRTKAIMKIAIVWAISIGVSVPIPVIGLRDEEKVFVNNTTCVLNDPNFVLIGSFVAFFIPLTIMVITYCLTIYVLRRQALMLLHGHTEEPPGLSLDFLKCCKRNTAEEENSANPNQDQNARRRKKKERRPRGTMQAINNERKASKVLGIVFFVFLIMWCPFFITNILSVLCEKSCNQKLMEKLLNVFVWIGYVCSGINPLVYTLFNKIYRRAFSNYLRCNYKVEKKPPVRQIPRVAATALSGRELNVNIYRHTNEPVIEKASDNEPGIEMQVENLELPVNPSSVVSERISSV
# [3] = molecular target: serotonin 5HT1D receptors (Homo sapiens, UniProt P28221)
# [4] = molecular target: T2, serotonin 5HT1A receptors (Homo sapiens, UniProt P08908)
# T2 sequence (P08908 1-422): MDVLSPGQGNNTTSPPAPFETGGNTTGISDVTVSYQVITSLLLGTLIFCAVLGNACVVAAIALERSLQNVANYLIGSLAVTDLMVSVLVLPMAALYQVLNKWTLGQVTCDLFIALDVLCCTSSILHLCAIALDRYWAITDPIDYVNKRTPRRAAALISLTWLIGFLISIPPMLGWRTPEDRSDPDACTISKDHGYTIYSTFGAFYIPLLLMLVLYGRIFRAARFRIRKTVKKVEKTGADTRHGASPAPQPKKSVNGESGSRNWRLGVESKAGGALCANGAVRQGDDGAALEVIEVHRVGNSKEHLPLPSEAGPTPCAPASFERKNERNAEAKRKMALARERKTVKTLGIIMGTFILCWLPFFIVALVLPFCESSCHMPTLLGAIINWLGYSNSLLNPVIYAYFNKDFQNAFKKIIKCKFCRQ
# dopamine D1 = dopamine D1 (Homo sapiens, UniProt P21728)
# [5] = system: haloperidol-sensitive sigma site
# β1 adrenergic receptors = β1 adrenergic receptors (Homo sapiens, UniProt P08588)
# β2 adrenergic receptors = β2 adrenergic receptors (Homo sapiens, UniProt P07550)
# β2 adrenergic receptors, sequence (P07550 whole entry): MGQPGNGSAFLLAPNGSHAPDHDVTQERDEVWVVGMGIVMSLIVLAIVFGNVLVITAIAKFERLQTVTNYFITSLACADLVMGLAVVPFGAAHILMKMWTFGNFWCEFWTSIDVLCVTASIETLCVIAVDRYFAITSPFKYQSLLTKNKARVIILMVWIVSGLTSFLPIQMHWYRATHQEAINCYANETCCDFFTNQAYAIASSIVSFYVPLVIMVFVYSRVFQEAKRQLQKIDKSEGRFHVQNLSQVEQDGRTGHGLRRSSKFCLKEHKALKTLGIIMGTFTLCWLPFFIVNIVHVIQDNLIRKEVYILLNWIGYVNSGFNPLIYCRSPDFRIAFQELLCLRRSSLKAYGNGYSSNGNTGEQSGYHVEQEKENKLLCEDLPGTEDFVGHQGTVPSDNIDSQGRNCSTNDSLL
# β1 adrenergic receptors, sequence (P08588 whole entry): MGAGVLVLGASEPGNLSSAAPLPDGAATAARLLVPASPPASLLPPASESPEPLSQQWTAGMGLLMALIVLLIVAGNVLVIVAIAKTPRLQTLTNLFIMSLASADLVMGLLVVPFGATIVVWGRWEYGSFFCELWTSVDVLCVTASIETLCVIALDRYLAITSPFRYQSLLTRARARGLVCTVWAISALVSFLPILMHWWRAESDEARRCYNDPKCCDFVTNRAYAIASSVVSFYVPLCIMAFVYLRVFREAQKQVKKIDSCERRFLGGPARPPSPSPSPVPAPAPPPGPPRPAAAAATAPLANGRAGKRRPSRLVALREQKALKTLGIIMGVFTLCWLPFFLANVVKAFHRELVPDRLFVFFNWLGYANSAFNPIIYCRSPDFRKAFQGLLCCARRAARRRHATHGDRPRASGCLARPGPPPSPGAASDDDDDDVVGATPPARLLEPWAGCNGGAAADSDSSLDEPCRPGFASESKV
# serotonin 5HT1D receptors, sequence (P28221 whole entry): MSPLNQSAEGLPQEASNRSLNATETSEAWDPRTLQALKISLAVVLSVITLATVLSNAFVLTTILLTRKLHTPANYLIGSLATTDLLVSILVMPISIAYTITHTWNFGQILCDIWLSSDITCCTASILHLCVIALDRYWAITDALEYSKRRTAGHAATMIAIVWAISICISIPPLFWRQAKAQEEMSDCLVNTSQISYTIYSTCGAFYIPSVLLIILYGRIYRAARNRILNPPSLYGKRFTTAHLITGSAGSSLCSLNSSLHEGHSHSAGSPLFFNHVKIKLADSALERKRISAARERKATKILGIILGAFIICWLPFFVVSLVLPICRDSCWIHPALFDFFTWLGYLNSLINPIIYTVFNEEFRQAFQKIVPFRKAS
# dopamine Type 2 (D2) receptors, sequence (P14416 whole entry): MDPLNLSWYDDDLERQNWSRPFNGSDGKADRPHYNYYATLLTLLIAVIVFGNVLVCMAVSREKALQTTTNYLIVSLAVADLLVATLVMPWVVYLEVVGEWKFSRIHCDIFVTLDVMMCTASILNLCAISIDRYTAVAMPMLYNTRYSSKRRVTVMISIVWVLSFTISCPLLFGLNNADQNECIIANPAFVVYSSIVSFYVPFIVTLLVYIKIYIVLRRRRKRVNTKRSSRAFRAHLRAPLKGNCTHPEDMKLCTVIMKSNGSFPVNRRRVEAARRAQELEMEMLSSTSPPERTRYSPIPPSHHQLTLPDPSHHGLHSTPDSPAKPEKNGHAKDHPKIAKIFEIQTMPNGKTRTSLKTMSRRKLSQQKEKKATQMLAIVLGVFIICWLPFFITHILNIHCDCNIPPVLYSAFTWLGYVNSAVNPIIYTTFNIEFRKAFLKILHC
# dopamine D1, sequence (P21728 whole entry): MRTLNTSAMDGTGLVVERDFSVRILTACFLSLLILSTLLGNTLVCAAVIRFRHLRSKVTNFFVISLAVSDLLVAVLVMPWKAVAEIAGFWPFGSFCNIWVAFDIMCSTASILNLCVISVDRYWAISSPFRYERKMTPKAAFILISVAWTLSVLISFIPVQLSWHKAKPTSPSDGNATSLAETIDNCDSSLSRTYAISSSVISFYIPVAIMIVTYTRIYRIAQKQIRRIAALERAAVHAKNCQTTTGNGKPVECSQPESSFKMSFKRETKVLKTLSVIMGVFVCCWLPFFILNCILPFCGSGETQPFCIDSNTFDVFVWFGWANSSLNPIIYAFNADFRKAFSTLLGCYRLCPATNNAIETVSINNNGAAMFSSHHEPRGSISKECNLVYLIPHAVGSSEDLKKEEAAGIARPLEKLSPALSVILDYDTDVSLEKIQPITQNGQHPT
smiles,measurement,setting,value
"Cc1nc2n(c(=O)c1CCN1CCC(c3noc4cc(F)ccc34)CC1)CCCC2 [Risperidone, risperidone]",affinity,[1],high affinity
same,affinity,α1 adrenergic receptors,high affinity
same,affinity,α2 adrenergic receptors,high affinity
same,affinity,[2],low to moderate affinity
same,affinity,[3],low to moderate affinity
same,affinity,[4],low to moderate affinity
same,affinity,dopamine D1,weak affinity
same,affinity,[5],weak affinity
same,affinity,β1 adrenergic receptors,no affinity
same,affinity,β2 adrenergic receptors,no affinity
